{"source": "ChEMBL document CHEMBL4196107", "about": "“Antiangiogenic Activity and Chemical Derivatization of the Neurotoxic Acetogenin Annonacin Isolated from Asimina triloba” (J Nat Prod, 2018)", "key": {"[1]": {"system": "Thoracic aorta", "assay": "Antiangiogenic activity in Sprague-Dawley rat thoracic aorta ring assessed as inhibition of microvessels outgrowth at 50 uM after 5 days", "format": "functional"}, "[2]": {"assay": "Effective permeability of the compound at pH 7.4 by PAMPA-BBB assay"}, "[3]": {"system": "Thoracic aorta", "assay": "Antiangiogenic activity in Sprague-Dawley rat thoracic aorta ring assessed as inhibition of microvessels outgrowth after 5 days", "format": "functional, tissue-based", "conditions": "120 h"}, "[4]": {"assay": "Effective permeability of the compound in PBS at 10 uM at pH 7.4 after 16 hrs by PAMPA-BBB assay"}, "[5]": {"system": "Thoracic aorta", "assay": "Antiangiogenic activity in Sprague-Dawley rat thoracic aorta ring assessed as inhibition of microvessels outgrowth at 1 uM after 5 days", "format": "functional, tissue-based"}}, "note": "Active and inactive are the calls of the source. No cut-off for these calls is given here.", "data": [{"smiles": "CO[C@@H]1[C@H](OC(=O)NC(=O)CCl)CC[C@]2(CO2)[C@H]1[C@@]1(C)O[C@@H]1CC=C(C)C", "values": [{"measurement": "inhibition", "setting": "[1]", "result": "Active"}]}, {"smiles": "CCCCCCCCCCCC[C@H](N=[N+]=[N-])[C@H]1CC[C@H]([C@H](CCCC[C@H](CCCCC[C@@H](CC2=C[C@H](C)OC2=O)N=[N+]=[N-])N=[N+]=[N-])N=[N+]=[N-])O1", "values": [{"measurement": "inhibition at 50 µM", "setting": "[1]; 120 h", "result": 40, "unit": "%"}]}, {"smiles": "CC(C)NCC(O)COc1cccc2ccccc12", "note": "(centres undefined) [PROPRANOLOL]", "values": [{"measurement": "Papp", "setting": "[2]", "result": 12, "unit": "×10⁻⁶ cm/s"}]}, {"smiles": "CCCCCCCCCCCC[C@@H](O)[C@H]1CC[C@H]([C@H](O)CCCC[C@H](O)CCCCC[C@@H](O)CC2=C[C@H](C)OC2=O)O1", "values": [{"measurement": "IC50", "setting": "[3]", "result": 3, "unit": "µM"}, {"measurement": "Papp at 16 h, 10 µM", "setting": "[4]", "result": 0.51, "unit": "×10⁻⁶ cm/s"}]}, {"smiles": "CNC(=O)c1cc(Oc2ccc(NC(=O)Nc3ccc(Cl)c(C(F)(F)F)c3)cc2)ccn1", "values": [{"measurement": "inhibition", "setting": "[5]", "result": "Active"}]}, {"smiles": "CCCCCCCCCCCC[C@@H](N=[N+]=[N-])[C@H]1CC[C@H]([C@@H](CCCC[C@@H](CCCCC[C@H](CC2=C[C@H](C)OC2=O)N=[N+]=[N-])N=[N+]=[N-])N=[N+]=[N-])O1", "values": [{"measurement": "inhibition", "setting": "[1]", "result": "inactive"}]}, {"smiles": "CN(Cc1cnc2nc(N)nc(N)c2n1)c1ccc(C(=O)N[C@@H](CCC(=O)O)C(=O)O)cc1", "note": "[METHOTREXATE]", "values": [{"measurement": "Papp at 16 h, 10 µM", "setting": "[4]", "result": 0.007, "unit": "×10⁻⁶ cm/s"}, {"measurement": "Peff", "setting": "[2]", "result": 0.037, "unit": "×10⁻⁶ cm/s"}]}]}
